Our source for the IC50 and Kp values is patent publication US20090111854A1, “1,2,4-TRIAZOLE ARYL N-OXIDES DERIVATIVES AS MODULATORS OF MGLUR5” (AstraZeneca AB, priority 2007, published 2009).

The target of data set [1] is T1, human mGluR5d (Homo sapiens, UniProt P41594).
T1 construct: expressed in transfected cells; The culture medium contains hygromycin B and Zeocin as selection agents; The separate IP3 assay names 'GHEK stably expressing the human mGluR5d'
Description: FLIPR assay, functional assessment of mGluR5 antagonism (intracellular calcium mobilization). The data set is classed as cell-based. To be noted: cells expressing human mGluR5d; read-out: FLIPR hmGluR5d. The text has this:
Functional Assessment of mGluR5 Antagonism it Cell Lines Expressing mGluR5D
The properties of the compounds of the invention can be analyzed using standard assays for pharmacological activity. Examples of glutamate receptor assays are well known in the art as described in for example Aramori et al., Neuron 8:757 (1992), Tanabe et al., Neuron 8:169 (1992), Miller et al., J. Neuroscience 15: 6103 (1995), Balazs, et al., J. Neurochemistry 69:151 (1997). The methodology described in these publications is to incorporated herein by reference. Conveniently, the compounds of the invention can be studied by means of an assay (FLIPR) that measures the mobilization of intracellular calcium, [Ca^2+]i in cells expressing mGluR5 or another assay (IP3) that measures inositol phosphate turnover.
Cells expressing human mGluR5d as described in WO97/05252 cultured in a mixture of high glucose DMEM with Glutamax (31966-021) (500 mL), 10% dialyzed fetal bovine serum (Hyclone #SH30079.03)(56 mL), 200 μg/mL Hygromycin B (Invitrogen 45-0430, 50 mg/mL) (2.2 mL), 200 μg/mL Zeocin (Invitrogen #R250-01; 100 mg/mL)(1.1 mL) are seeded at a density of 100,000 cells per well on collagen coated clear bottom 96-well plates with black sides and cells were allowed to adhere over night before experiments. All assays are done in a buffer containing 146 mM NaCl, 5 mM KCl, 1 mM MgCl2, 1 mM CaCl2, 20 mM HEPES, 1 mg/mL glucose and 1 mg/mL BSA Fraction IV (pH 7.4). Cell cultures in the 96-well plates are loaded for 60 minutes in the above mentioned buffer containing 6 μM of the acetoxymethyl ester form of the fluorescent calcium indicator fluo-3 (Molecular Probes, Eugene, Oreg.) in 0.025% pluronic acid (a proprietary, non-ionic surfactant polyol—CAS Number 9003-11-6). […] The fluorescence signal is sampled 50 times at 1-second intervals followed by 3 samples at 5-second intervals immediately after each of the two additions. Responses are measured as the difference between the peak heights of the response to agonist, less the background fluorescence within the sample period. […]

Data set [2] can be described thus: Determination of brain to plasma ratio in rat. The data set is classed as in vivo, female Sprague Dawley rats. To be noted: female, Sprague Dawley, brain and plasma, read-out: Brain/Plasma Ratio of compound in Rat. Here is the method: Brain to plasma ratios are estimated in female Sprague Dawley rats. The compound is dissolved in water or another appropriate vehicle. For determination of brain to plasma ratio the compound is administrated as a subcutaneous, or an intravenous bolus injection, or an intravenous infusion, or an oral administration. At a predetermined time point after the administration a blood sample is taken with cardiac puncture. The rat is terminated by cutting the heart open, and the brain is immediately retained. The blood samples are collected in heparinized tubes and centrifuged within 30 minutes, in order to separate the plasma from the blood cells. The plasma is transferred to 96-well plates and stored at −20° C. until analysis. The brains are divided in half, and each half is placed in a pre-tarred tube and stored at −20° C. until analysis. Prior to the analysis, the brain samples are thawed and 3 mL/g brain tissue of distilled water is added to the tubes. The brain samples are sonicated in an ice bath until the samples are homogenized. Both brain and plasma samples are precipitated with acetonitrile. After centrifugation, the supernatant is diluted with 0.2% formic acid. Analysis is performed on a short reversed-phase HPLC column with rapid gradient elution and MSMS detection using a triple quadrupole instrument with electrospray ionisation and Selected Reaction Monitoring (SRM) acquisition. Liquid-liquid extraction may be used as an alternative sample clean-up. The samples are extracted, by shaking, to an organic solvent after addition of a suitable buffer. An aliquot of the organic layer is transferred to a new vial and evaporated to dryness under a stream of nitrogen. After reconstitution of the residuals the samples are ready for injection onto the HPLC column.

T1 sequence (P41594 21-942 isoform P41594-3 limits assumed): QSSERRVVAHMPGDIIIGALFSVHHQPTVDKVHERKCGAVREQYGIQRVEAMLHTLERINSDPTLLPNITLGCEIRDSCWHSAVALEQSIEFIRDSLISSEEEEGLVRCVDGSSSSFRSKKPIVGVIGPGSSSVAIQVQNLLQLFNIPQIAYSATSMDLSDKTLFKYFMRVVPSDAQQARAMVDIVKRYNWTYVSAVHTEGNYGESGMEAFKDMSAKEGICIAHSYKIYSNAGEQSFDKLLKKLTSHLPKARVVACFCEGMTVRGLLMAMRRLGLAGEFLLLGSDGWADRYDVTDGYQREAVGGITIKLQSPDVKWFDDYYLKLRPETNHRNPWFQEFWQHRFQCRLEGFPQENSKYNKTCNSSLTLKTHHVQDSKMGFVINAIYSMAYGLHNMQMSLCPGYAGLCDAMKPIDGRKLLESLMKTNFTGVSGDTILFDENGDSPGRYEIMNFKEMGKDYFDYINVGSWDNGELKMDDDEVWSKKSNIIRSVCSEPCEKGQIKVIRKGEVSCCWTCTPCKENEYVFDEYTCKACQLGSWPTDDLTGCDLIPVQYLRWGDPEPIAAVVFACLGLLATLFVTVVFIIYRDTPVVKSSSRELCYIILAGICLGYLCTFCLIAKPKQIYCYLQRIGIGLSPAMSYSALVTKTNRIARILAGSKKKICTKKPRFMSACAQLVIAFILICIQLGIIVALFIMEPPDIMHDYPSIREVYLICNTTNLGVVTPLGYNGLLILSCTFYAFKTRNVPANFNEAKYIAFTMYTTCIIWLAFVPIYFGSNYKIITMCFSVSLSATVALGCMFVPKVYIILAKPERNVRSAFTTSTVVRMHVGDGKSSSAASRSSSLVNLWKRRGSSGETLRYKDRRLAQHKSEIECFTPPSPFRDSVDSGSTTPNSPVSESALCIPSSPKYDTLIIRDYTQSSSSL

Consider `Cn1c(-c2ccc[n+]([O-])c2)nnc1N1CCC[C@@H]1c1nnn(-c2cccc(Cl)c2)n1` [Example 6, 3-(5-{(2R)-2-[2-(3-chlorophenyl)-2H-tetrazol-5-yl]pyrrolidin-1-yl}-4-methyl-4H-1,2,4-triazol-3-yl)pyridine 1-oxide], for which, in data set [1], the IC50 was 108 nM. Moreover, the Kp in data set [2] was below 0.01.
Take `C[C@@H](c1noc(-c2cccc(Cl)c2)n1)N(C)c1nnc(-c2cc[n+]([O-])cc2)n1C` [Example 4, N-{(1S)-1-[5-(3-chlorophenyl)-1,2,4-oxadiazol-3-yl]ethyl}-N,4-dimethyl-5-(1-oxidopyridin-4-yl)-4H-1,2,4-triazol-3-amine]: the IC50 in data set [1] was found to be 81 nM. Moreover, in data set [2], the Kp was determined as 0.01.
In the same order, the values of `Cn1c(-c2ccc[n+]([O-])c2)nnc1N1CCCC[C@@H]1c1nnn(-c2cccc(Cl)c2)n1` [Example 5, 3-(5-{(2R)-2-[2-(3-chlorophenyl)-2H-tetrazol-5-yl]piperidin-1-yl}-4-methyl-4H-1,2,4-triazol-3-yl)pyridine 1-oxide] are 49 nM and below 0.015.
